Assay results from patent US8999940B2 (Ipsen Pharma S.A.S., priority 2008, dated 2015).
Where a SMILES comes first, the peptide text is derived from it. [ ]: non-standard residue; d: D form. The star is where a group is joined. Desaminotyrosyl = O=C(CCc1ccc(O)cc1)*; Nle = CCCC[C@H](N)C(=O)O; Aib = CC(C)(N)C(=O)O

Assays:
[1] = Human plasma half-life assay; format: in vitro ADME; details: 37° C., LC-MS, read-out: Human Plasma T½ (converted)
[2] = target: T1, human recombinant GIP receptor (Homo sapiens, UniProt P48546); assay: In vitro hGIP receptor binding assay
T1 construct: expressed in transfected cells; host or cells: CHO-K1 clonal cells (membrane preparation)
T1 sequence (P48546 22-466): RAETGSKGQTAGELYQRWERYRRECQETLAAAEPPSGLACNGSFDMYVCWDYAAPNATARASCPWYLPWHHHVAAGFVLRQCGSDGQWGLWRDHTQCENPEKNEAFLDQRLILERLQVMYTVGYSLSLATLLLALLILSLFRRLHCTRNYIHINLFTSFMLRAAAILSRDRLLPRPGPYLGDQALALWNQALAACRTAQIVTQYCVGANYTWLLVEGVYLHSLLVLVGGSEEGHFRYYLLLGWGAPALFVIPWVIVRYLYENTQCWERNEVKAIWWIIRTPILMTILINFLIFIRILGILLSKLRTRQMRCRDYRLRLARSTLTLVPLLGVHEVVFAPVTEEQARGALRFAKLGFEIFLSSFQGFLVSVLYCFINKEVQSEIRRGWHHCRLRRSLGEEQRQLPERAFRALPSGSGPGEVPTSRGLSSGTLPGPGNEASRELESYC
Method: A. In Vitro hGIP Receptor Binding Assay […] The incubations were terminated by rapid filtration through GF/C filters (pre-soaked in 0.5% polyethylenimine) using a Brandel filtration manifold. Each tube and filter were then washed three times with 5-ml aliquots of ice-cold buffer.

[3] = Rat plasma half-life assay; format: in vitro ADME; details: 37° C., LC-MS, read-out: Rat Plasma T½ (converted)

CCCC[C@H](NC(=O)[C@H](C)NC(=O)[C@@H](NC(=O)[C@H](CO)NC(=O)[C@H](Cc1ccc(O)cc1)NC(=O)[C@H](CC(=O)O)NC(=O)[C@H](CO)NC(=O)[C@@H](NC(=O)[C@H](Cc1ccccc1)NC(=O)[C@@H](NC(=O)CNC(=O)[C@H](CCC(=O)O)NC(=O)C(C)(C)NC(=O)CCc1ccc(O)cc1)[C@@H](C)O)[C@@H](C)CC)[C@@H](C)CC)C(=O)N[C@@H](CC(=O)O)C(=O)N[C@@H](CCCCN)C(=O)N[C@H](C(=O)N[C@@H](Cc1c[nH]cn1)C(=O)N[C@@H](CCC(N)=O)C(=O)N[C@@H](CCC(N)=O)C(=O)N[C@@H](CC(=O)O)C(=O)N[C@@H](Cc1ccccc1)C(=O)N[C@H](C(=O)N[C@@H](CC(N)=O)C(=O)N[C@@H](Cc1c[nH]c2ccccc12)C(=O)N[C@@H](CC(C)C)C(=O)N[C@@H](CC(C)C)C(=O)N[C@@H](C)C(=O)N[C@@H](CCC(N)=O)C(=O)N[C@@H](CCCCN)C(N)=O)C(C)C)[C@@H](C)CC [Example 5, (4Hppa^1, Aib^2, Nle^14)hGIP(1-30)-NH2] (Desaminotyrosyl-[Aib]EGTFISDYSIA[Nle]DKIHQQDFVNWLLAQK-NH2)
half-life at 0.1 mg/ml [1]: 50.6 h
Ki [2]: 2.95 nM
half-life at 0.1 mg/ml [3]: 83.5 h

CCCC[C@H](NC(=O)[C@H](C)NC(=O)[C@@H](NC(=O)C1(NC(=O)[C@H](Cc2ccc(O)cc2)NC(=O)[C@H](CC(=O)O)NC(=O)[C@H](CO)NC(=O)[C@@H](NC(=O)[C@H](Cc2ccccc2)NC(=O)[C@@H](NC(=O)CNC(=O)[C@H](CCC(=O)O)NC(=O)C(C)(C)NC(=O)[C@@H](N)Cc2ccc(CN)cc2)[C@@H](C)O)[C@@H](C)CC)CCCC1)[C@@H](C)CC)C(=O)N[C@@H](CC(=O)O)C(=O)N[C@@H](CCCCN)C(=O)N[C@H](C(=O)N[C@@H](Cc1c[nH]cn1)C(=O)N[C@@H](CCC(N)=O)C(=O)N[C@@H](CCC(N)=O)C(=O)N[C@@H](CC(=O)O)C(=O)N[C@@H](Cc1ccccc1)C(=O)N[C@H](C(=O)N[C@@H](CC(N)=O)C(=O)N[C@@H](Cc1c[nH]c2ccccc12)C(=O)N[C@@H](CC(C)C)C(=O)N[C@@H](CC(C)C)C(=O)N[C@@H](C)C(=O)N[C@@H](CCC(N)=O)C(=O)N[C@@H](CCCCN)C(=O)NCC(=O)N[C@@H](CCCCN)C(=O)N[C@@H](CCCCN)C(=O)N[C@@H](CC(N)=O)C(=O)N[C@@H](CC(=O)O)C(=O)N[C@@H](Cc1c[nH]c2ccccc12)C(=O)N[C@@H](CCCCN)C(=O)N[C@@H](Cc1c[nH]cn1)C(=O)N[C@@H](CC(N)=O)C(=O)N[C@H](C(=O)N[C@H](C(=O)N[C@@H](CCC(N)=O)C(=O)O)[C@@H](C)O)[C@@H](C)CC)C(C)C)[C@@H](C)CC [Example 21, (4NH2CH2-Phe^1, Aib^2, A5c^11, Nle^14)hGIP(1-42)-OH]
half-life at 0.1 mg/ml [1]: > 74 h
Ki [2]: 95 nM
half-life at 0.1 mg/ml [3]: 6 h

CC[C@H](C)[C@H](NC(=O)[C@H](CCCCN)NC(=O)[C@H](CC(=O)O)NC(=O)[C@H](CCSC)NC(=O)[C@H](C)NC(=O)[C@@H](NC(=O)C1(NC(=O)[C@H](Cc2ccc(O)cc2)NC(=O)[C@H](CC(=O)O)NC(=O)[C@H](CO)NC(=O)[C@@H](NC(=O)[C@H](Cc2ccccc2)NC(=O)[C@@H](NC(=O)CNC(=O)[C@H](CCC(=O)O)NC(=O)C(C)(C)NC(=O)[C@@H](N)Cc2cccc(O)c2)[C@@H](C)O)[C@@H](C)CC)CCCC1)[C@@H](C)CC)C(=O)N[C@@H](Cc1c[nH]cn1)C(=O)N[C@@H](CCC(N)=O)C(=O)N[C@@H](CCC(N)=O)C(=O)N[C@@H](CC(=O)O)C(=O)N[C@@H](Cc1ccccc1)C(=O)N[C@H](C(=O)N[C@@H](CC(N)=O)C(=O)N[C@@H](Cc1c[nH]c2ccccc12)C(=O)N[C@@H](CC(C)C)C(=O)N[C@@H](CC(C)C)C(=O)N[C@@H](C)C(=O)N[C@@H](CCC(N)=O)C(=O)N[C@@H](CCCCN)C(=O)NCC(=O)N[C@@H](CCCCN)C(=O)N[C@@H](CCCCN)C(=O)N[C@@H](CC(N)=O)C(=O)N[C@@H](CC(=O)O)C(=O)N[C@@H](Cc1c[nH]c2ccccc12)C(=O)N[C@@H](CCCCN)C(=O)N[C@@H](Cc1c[nH]cn1)C(=O)N[C@@H](CC(N)=O)C(=O)N[C@H](C(=O)NC1(C(=O)N[C@@H](CCC(N)=O)C(=O)O)CCCC1)[C@@H](C)CC)C(C)C [Example 26, (30H-Phe^1, Aib^2, A5c^11, 41)hGIP(1-42)-OH]
half-life at 0.1 mg/ml [1]: 26.2 h
Ki [2]: 7.52 nM
half-life at 0.1 mg/ml [3]: 48.8 h

CC[C@H](C)[C@H](NC(=O)[C@H](CCCCN)NC(=O)[C@H](CC(=O)O)NC(=O)[C@H](CCSC)NC(=O)[C@H](C)NC(=O)[C@@H](NC(=O)C1(NC(=O)[C@H](Cc2ccc(O)cc2)NC(=O)[C@H](CC(=O)O)NC(=O)[C@H](CO)NC(=O)[C@@H](NC(=O)[C@H](Cc2ccccc2)NC(=O)[C@@H](NC(=O)CNC(=O)[C@H](CCC(=O)O)NC(=O)C(C)(C)NC(=O)[C@@H](N)Cc2cscn2)[C@@H](C)O)[C@@H](C)CC)CCCC1)[C@@H](C)CC)C(=O)N[C@@H](Cc1c[nH]cn1)C(=O)N[C@@H](CCC(N)=O)C(=O)N[C@@H](CCC(N)=O)C(=O)N[C@@H](CC(=O)O)C(=O)N[C@@H](Cc1ccccc1)C(=O)N[C@H](C(=O)N[C@@H](CC(N)=O)C(=O)N[C@@H](Cc1c[nH]c2ccccc12)C(=O)N[C@@H](CC(C)C)C(=O)N[C@@H](CC(C)C)C(=O)N[C@@H](C)C(=O)N[C@@H](CCC(N)=O)C(=O)N[C@@H](CCCCN)C(=O)NCC(=O)N[C@@H](CCCCN)C(=O)N[C@@H](CCCCN)C(=O)N[C@@H](CC(N)=O)C(=O)N[C@@H](CC(=O)O)C(=O)N[C@@H](Cc1c[nH]c2ccccc12)C(=O)N[C@@H](CCCCN)C(=O)N[C@@H](Cc1c[nH]cn1)C(=O)N[C@@H](CC(N)=O)C(=O)N[C@H](C(=O)NC1(C(=O)N[C@@H](CCC(N)=O)C(=O)O)CCCC1)[C@@H](C)CC)C(C)C [Example 35, (Taz^1, Aib^2, A5c^11, 41)hGIP(1-42)-OH]
half-life at 0.1 mg/ml [1]: 74.5 h
Ki [2]: 3.28 nM
half-life at 0.1 mg/ml [3]: 50.6 h

CC[C@H](C)[C@H](NC(=O)[C@H](CCCCN)NC(=O)[C@H](CC(=O)O)NC(=O)[C@H](CCSC)NC(=O)[C@H](C)NC(=O)[C@@H](NC(=O)C1(NC(=O)[C@H](Cc2ccc(O)cc2)NC(=O)[C@H](CC(=O)O)NC(=O)[C@H](CO)NC(=O)[C@@H](NC(=O)[C@H](Cc2ccccc2)NC(=O)[C@@H](NC(=O)CNC(=O)[C@H](CCC(=O)O)NC(=O)C(C)(C)NC(=O)[C@@H](N)CCc2ccc(O)cc2)[C@@H](C)O)[C@@H](C)CC)CCCC1)[C@@H](C)CC)C(=O)N[C@@H](Cc1c[nH]cn1)C(=O)N[C@@H](CCC(N)=O)C(=O)N[C@@H](CCC(N)=O)C(=O)N[C@@H](CC(=O)O)C(=O)N[C@@H](Cc1ccccc1)C(=O)N[C@H](C(=O)N[C@@H](CC(N)=O)C(=O)N[C@@H](Cc1c[nH]c2ccccc12)C(=O)N[C@@H](CC(C)C)C(=O)N[C@@H](CC(C)C)C(=O)N[C@@H](C)C(=O)N[C@@H](CCC(N)=O)C(=O)N[C@@H](CCCCN)C(=O)NCC(=O)N[C@@H](CCCCN)C(=O)N[C@@H](CCCCN)C(=O)N[C@@H](CC(N)=O)C(=O)N[C@@H](CC(=O)O)C(=O)N[C@@H](Cc1c[nH]c2ccccc12)C(=O)N[C@@H](CCCCN)C(=O)N[C@@H](Cc1c[nH]cn1)C(=O)N[C@@H](CC(N)=O)C(=O)N[C@H](C(=O)N[C@H](C(=O)N[C@@H](CCC(N)=O)C(=O)N[C@@H](Cc1c[nH]cn1)C(=O)O)[C@@H](C)O)[C@@H](C)CC)C(C)C [Example 80, (hTyr^1, Aib^2, A5c^11, His^43)hGIP(1-43)-OH]
half-life at 0.1 mg/ml [1]: 22.6 h
Ki [2]: 9.42 nM
half-life at 0.1 mg/ml [3]: 18.4 h

CCCC[C@H](NC(=O)[C@H](C)NC(=O)[C@@H](NC(=O)C1(NC(=O)[C@H](Cc2ccc(O)cc2)NC(=O)[C@H](CC(=O)O)NC(=O)[C@H](CO)NC(=O)[C@@H](NC(=O)[C@H](Cc2ccccc2)NC(=O)[C@@H](NC(=O)CNC(=O)[C@H](CCC(=O)O)NC(=O)C(C)(C)NC(=O)[C@@H](N)Cc2ccc(O)c(I)c2)[C@@H](C)O)[C@@H](C)CC)CCCC1)[C@@H](C)CC)C(=O)N[C@@H](CC(=O)O)C(=O)N[C@@H](CCCCN)C(=O)N[C@H](C(=O)N[C@@H](Cc1c[nH]cn1)C(=O)N[C@@H](CCC(N)=O)C(=O)N[C@@H](CCC(N)=O)C(=O)N[C@@H](CC(=O)O)C(=O)N[C@@H](Cc1ccccc1)C(=O)N[C@H](C(=O)N[C@@H](CC(N)=O)C(=O)N[C@@H](Cc1c[nH]c2ccccc12)C(=O)N[C@@H](CC(C)C)C(=O)N[C@@H](CC(C)C)C(=O)N[C@@H](C)C(=O)N[C@@H](CCC(N)=O)C(=O)N[C@@H](CCCCN)C(=O)NCC(=O)N[C@@H](CCCCN)C(=O)N[C@@H](CCCCN)C(=O)N[C@@H](CC(N)=O)C(=O)N[C@@H](CC(=O)O)C(=O)N[C@@H](Cc1c[nH]c2ccccc12)C(=O)N[C@@H](CCCCN)C(=O)N[C@@H](Cc1c[nH]cn1)C(=O)N[C@@H](CC(N)=O)C(=O)N[C@H](C(=O)N[C@H](C(=O)N[C@@H](CCC(N)=O)C(=O)O)[C@@H](C)O)[C@@H](C)CC)C(C)C)[C@@H](C)CC [Example 16, (3I-Tyr^1, Aib^2, A5c^11, Nle^14)hGIP(1-42)-OH]
half-life at 0.1 mg/ml [1]: 52.1 h
Ki [2]: 5.03 nM
half-life at 0.1 mg/ml [3]: 18.5 h
